# Test results published in patent publication US11618880B2, “Compositions comprising bacterial strains and use thereof in controlling pathogenic microorganisms” (Better Air International Limited, priority 2018, dated 2023).
# Assays:
# Experiment in all cases: Agar well diffusion assay, antagonism of molds
# Format in all cases: cell-based
# Details in all cases: PDA plates, 25° C. 72 hours
# [1] = system: Penicillium chrysogenum Thom (ATCC MYA-4644)
# Protocol: (§1) The agar well diffusion assay was performed to evaluate the antagonistic activity of B. amyloliquefaciens 298 against the growth of pathogenic bacteria including Escherichia coli ATCC 22922, Pseudomonas aeruginosa, B. cereus ATCC 27348, Staphylococcus aureus ATCC 11335, Salmonella Typhimurium ATCC 14028 and Listeria innocua ATCC 3586. […] Brain Heart Infusion (BHI) Agar was used for the antagonism against pathogenic microorganisms while the Potato Dextrose Agar (PDA) was used for evaluation against molds. Reference pathogens were prepared using BHI broth at 37° C. for 18 hours while B. amyloliquefaciens 298 was grown using LB broth at 37° C. for 18 hours. Molds were prepared using PDA at 25° C. with 85% HR for 7 days. Mold spores, pathogens and B. amyloliquefaciens 298 were harvested and resuspended in PBS. Pathogens and B. amyloliquefaciens 298 were adjusted to an optical density of 0.2 and 100 uL of pathogen suspended in PBS was spread on BHI agar plates. The same amount of mold spore suspension was inoculated on PDA. Wells were made in all the plates and 20 μL of B. amyloliquefaciens 298 suspensions were inoculated in the wells while the BHI plates were incubated at 37° C. for 24 hours and PDA plates at 25° C. for 72 hours.
# [2] = system: Cladosporium sphaerospermum Penzig (ATCC MYA-4645)
# Protocol: as §1
# [3] = system: Alternaria alternata (Fries) Keissler (ATCC MYA-4642)
# Protocol: as §1
smiles,measurement,setting,value
"OO [Hydrogen peroxide 10%, hydrogen peroxide]","Inhibition zone, Penicillium chrysogenum Thom (ATCC MYA-4644)",[1],10 mm
same,"Inhibition zone, Cladosporium sphaerospermum Penzig (ATCC MYA-4645)",[2],12 mm
same,"Inhibition zone, Alternaria alternata (Fries) Keissler (ATCC MYA-4642)",[3],8 mm
